The target of this assay is T1, human 4lg B7-H3 (Homo sapiens, UniProt Q5ZPR3).
T1 sequence (Q5ZPR3 29-534): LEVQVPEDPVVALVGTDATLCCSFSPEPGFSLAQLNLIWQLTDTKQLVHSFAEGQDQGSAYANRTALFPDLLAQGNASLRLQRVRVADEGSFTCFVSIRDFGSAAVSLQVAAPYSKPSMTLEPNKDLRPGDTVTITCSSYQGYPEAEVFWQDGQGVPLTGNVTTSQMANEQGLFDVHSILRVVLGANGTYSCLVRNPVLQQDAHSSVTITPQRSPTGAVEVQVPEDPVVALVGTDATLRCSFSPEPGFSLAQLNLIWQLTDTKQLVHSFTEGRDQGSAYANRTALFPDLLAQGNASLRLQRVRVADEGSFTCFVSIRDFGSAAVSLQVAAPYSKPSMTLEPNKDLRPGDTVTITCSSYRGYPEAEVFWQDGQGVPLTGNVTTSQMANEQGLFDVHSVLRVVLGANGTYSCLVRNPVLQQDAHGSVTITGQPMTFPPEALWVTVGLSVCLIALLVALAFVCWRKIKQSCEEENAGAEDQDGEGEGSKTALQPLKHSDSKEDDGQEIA
Description: Affinity determination by surface plasmon resonance (SPR) to 4Ig B7-H3. The note with it: 4Ig B7-H3.

Setting [1] is: SPR KD—25° C., 25° C. flow cell temperature.
Setting [2] is: SPR KD—37° C., 37° C. flow cell temperature.

Structures are written as SMILES. Starred links: 1 amine or outer side, 2 acyl side, 3 side chain; linkers in the order of their positions; H or OH if unused. Positions of bridges follow the written chain, without caps; N, C: chain ends. Non-standard residues stand in square brackets, D forms with d. Residues, ends and D or L forms follow the SMILES beside them. Groups on a side chain read outwards from the residue. *: point of attachment. X4 = O=C(O)CN1CCN(CC(=O)O)CCN([C@H](CCC(=O)*)C(=O)O)CCN(CC(=O)O)CC1; Ala(piperidin-4-yl) = O=C([C@H](CC1CCN([*:3])CC1)N[*:1])[*:2]; X10 = C[C@@H](c1c[nH]c2ccc(F)cc12)[C@H](N[*:1])C(=O)[*:2]; DOTA = O=C(O)CN1CCN(CC(=O)O)CCN(CC(=O)*)CCN(CC(=O)O)CC1; Phe(4-COOH) = N[C@@H](Cc1ccc(C(=O)O)cc1)C(=O)O; Trp(5-F) = N[C@@H](Cc1c[nH]c2ccc(F)cc12)C(=O)O; 1Nal = N[C@@H](Cc1cccc2ccccc12)C(=O)O; Ala(4-THP) = N[C@@H](CC1CCOCC1)C(=O)O; Val(3-OH) = CC(C)(O)[C@H](N)C(=O)O; PEG4 = NCCOCCOCCOCCOCCC(=O)O; Pen = CC(C)(S)[C@H](N)C(=O)O; Tle = CC(C)(C)[C@H](N)C(=O)O; hLeu = CC(C)CC[C@H](N)C(=O)O; αMeP = C[C@@]1(C(=O)O)CCCN1; Nle = CCCC[C@H](N)C(=O)O; Sar = CNCC(=O)O Some results are limits rather than exact numbers.

A word on the Kd: it is the constant that tells how readily two partners part at equilibrium. Read a high Kd as lower affinity. In turn, `CC(=O)N[C@@H](CCC(C)C)C(=O)N[C@@H](Cc1ccc(O)cc1)C(=O)N[C@H]1CSSC[C@@H](C(=O)N[C@@H](Cc2c[nH]c3ccccc23)C(=O)N[C@@H](Cc2ccccc2)C(=O)N[C@H](C(=O)N[C@H](CCCCNC(=O)CN2CCN(CC(=O)O)CCN(CC(=O)O)CCN(CC(=O)O)CC2)C(N)=O)[C@@H](C)O)NC(=O)[C@H](Cc2ccc(O)cc2)NC(=O)[C@H](C(C)C)NC(=O)[C@H](CC(=O)O)NC(=O)[C@H](Cc2ccc(O)cc2)NC(=O)[C@H](CCCCN)NC(=O)CNC(=O)[C@H](C(C)C)NC1=O` [Cpd #67, Ac-hLeu-Y-C-V-G-K-Y-D-V-Y-C-W-F-Thr-dLys(DOTA)-CONH2] (Ac-[hLeu]YCVGKYDVYCWFT[dK](DOTA)-NH2; disulfide 3-11) registered an equilibrium dissociation constant (Kd) under setting [1] of 1 to 10 nM.

`CC(=O)N[C@@H](CCC(C)C)C(=O)N[C@@H](Cc1ccc(O)cc1)C(=O)N[C@H]1CSSC[C@@H](C(=O)N[C@@H](Cc2c[nH]c3ccc(F)cc23)C(=O)N[C@@H](Cc2ccccc2)C(=O)N[C@H](C(=O)N[C@H](CO)C(=O)O)C(C)(C)O)NC(=O)[C@H](Cc2ccc(O)cc2)NC(=O)[C@H](C(C)C)NC(=O)[C@H](CC(=O)O)NC(=O)[C@H](CC2CCN(C(=O)CCOCCOCCOCCOCCNC(=O)CN3CCN(CC(=O)O)CCN(CC(=O)O)CCN(CC(=O)O)CC3)CC2)NC(=O)[C@H](CC2CCNCC2)NC(=O)CNC(=O)[C@H](C(C)(C)C)NC1=O` [compound 483, Ac-hLeu-Y-C-Tbg-G-PipAla-Pip(PEG4-DOTA)Ala-D-V-Y-C-5FW-F-hydroxyVal-dSer-COOH] (Ac-[hLeu]YC[Tle]G[Ala(piperidin-4-yl)][Ala(piperidin-4-yl)]([PEG4-DOTA])DVYC[Trp(5-F)]F[Val(3-OH)][dS]-OH; disulfide 3-11) had a Kd under setting [2] below 1 nM.

As for `CC(=O)N[C@@H](CCC(C)C)C(=O)N[C@@H](Cc1ccc(O)cc1)C(=O)N[C@H]1CSSC[C@@H](C(=O)N[C@H](C(=O)N[C@@H](Cc2ccccc2)C(=O)N[C@H](C(=O)N[C@H](CCCCNC(=O)CN2CCN(CC(=O)O)CCN(CC(=O)O)CCN(CC(=O)O)CC2)C(=O)O)C(C)(C)O)[C@@H](C)c2c[nH]c3ccc(F)cc23)NC(=O)[C@H](Cc2ccc(O)cc2)NC(=O)[C@H](C(C)C)NC(=O)[C@H](CC(=O)O)NC(=O)[C@H](CC2CCOCC2)NC(=O)[C@H](CC2CCNCC2)NC(=O)CNC(=O)[C@H](C(C)(C)C)NC1=O` [compound 450, Ac-hLeu-Y-C-Tbg-G-PipAla-ThpA-D-V-Y-C-(2S,3S-betaMe-5FW)-F-hydroxyVal-dLys(DOTA)-COOH] (Ac-[hLeu]YC[Tle]G[Ala(piperidin-4-yl)][Ala(4-THP)]DVYC[X10]F[Val(3-OH)][dK](DOTA)-OH; disulfide 3-11), under setting [2], the Kd was in the range of 1 to 10 nM.

Under setting [1], `CC(=O)N[C@@H](CCC(C)C)C(=O)N[C@@H](Cc1ccc(O)cc1)C(=O)N[C@@H]1C(=O)N[C@@H](C(C)C)C(=O)NCC(=O)N[C@@H](CCCCN)C(=O)N[C@@H](Cc2ccc(O)cc2)C(=O)N[C@@H](CC(=O)O)C(=O)N[C@@H](C(C)C)C(=O)N[C@@H](Cc2ccc(O)cc2)C(=O)N[C@H](C(=O)N[C@@H](Cc2c[nH]c3ccccc23)C(=O)N[C@@H](Cc2ccccc2)C(=O)N[C@H](C(=O)N[C@H](CCCCNC(=O)CN2CCN(CC(=O)O)CCN(CC(=O)O)CCN(CC(=O)O)CC2)C(N)=O)[C@@H](C)O)CSSC1(C)C` [compound 117, Ac-hLeu-Y-Pen-V-G-K-Y-D-V-Y-C-W-F-Thr-dLys(DOTA)-CONH2] (Ac-[hLeu]Y[Pen]VGKYDVYCWFT[dK](DOTA)-NH2; disulfide 3-11) gave a Kd of 10 to 100 nM.

The compound `CC(=O)N[C@@H](CCC(C)C)C(=O)N[C@@H](Cc1ccc(O)cc1)C(=O)N[C@H]1CSSC[C@@H](C(=O)N[C@@H](Cc2c[nH]c3ccc(F)cc23)C(=O)N[C@@H](Cc2ccccc2)C(=O)N[C@H](C(=O)N[C@H](CCC(=O)O)C(N)=O)C(C)(C)O)NC(=O)[C@H](Cc2ccc(O)cc2)NC(=O)[C@H](C(C)C)NC(=O)[C@H](CC(=O)O)NC(=O)[C@H](CC2CCN(C(=O)CC[C@H](C(=O)O)N3CCN(CC(=O)O)CCN(CC(=O)O)CCN(CC(=O)O)CC3)CC2)NC(=O)[C@H](CC2CCNCC2)NC(=O)CNC(=O)[C@H](C(C)(C)C)NC1=O` [compound 460, Ac-hLeu-Y-C-Tbg-G-PipAla-Pip(R-DOTAGA)Ala-D-V-Y-C-5FW-F-hydroxyVal-dGlu-CONH2] (Ac-[hLeu]YC[Tle]G[Ala(piperidin-4-yl)][Ala(piperidin-4-yl)](X4)DVYC[Trp(5-F)]F[Val(3-OH)][dE]-NH2; disulfide 3-11) came in with a Kd under setting [2] below 1 nM.

Regarding `CSCC[C@H](NC(C)=O)C(=O)N[C@@H](Cc1ccc(O)cc1)C(=O)N[C@H]1CSSC[C@@H](C(=O)N[C@@H](Cc2c[nH]c3ccccc23)C(=O)N[C@@H](Cc2ccccc2)C(N)=O)NC(=O)[C@H](Cc2ccc(O)cc2)NC(=O)[C@H](C(C)C)NC(=O)[C@H](CC(=O)O)NC(=O)[C@H](Cc2ccc(O)cc2)NC(=O)[C@H](CCCCN)NC(=O)CNC(=O)[C@H](C(C)C)NC1=O` [compound 1, Ac-M-Y-C-V-G-K-Y-D-V-Y-C-W-F-CONH2] (Ac-MYCVGKYDVYCWF-NH2; disulfide 3-11), the Kd runs as follows: under setting [1], 100 to 300 nM; under setting [2], 100 to 300 nM.

Regarding `CCCC[C@H](NC(C)=O)C(=O)N[C@@H](Cc1ccc(O)cc1)C(=O)N[C@H]1CSSC[C@@H](C(=O)N[C@@H](Cc2c[nH]c3ccccc23)C(=O)N[C@@H](Cc2ccccc2)C(N)=O)NC(=O)[C@H](Cc2ccc(O)cc2)NC(=O)[C@H](C(C)C)NC(=O)[C@H](CC(=O)O)NC(=O)[C@H](Cc2ccc(O)cc2)NC(=O)[C@H](CCCCN)NC(=O)CNC(=O)[C@H](C(C)C)NC1=O` [Cpd #7, Ac-Nle-Y-C-V-G-K-Y-D-V-Y-C-W-F-CONH2] (Ac-[Nle]YCVGKYDVYCWF-NH2; disulfide 3-11), the Kd under setting [2] fell in the range of 10 to 100 nM.

Under setting [2], `CCCC[C@H](NC(=O)[C@H](Cc1c[nH]c2ccc(F)cc12)NC(=O)[C@@H]1CSSC[C@H](NC(=O)[C@H](Cc2ccc(O)cc2)NC(=O)[C@H](CCC(C)C)NC(C)=O)C(=O)N[C@@H](C(C)(C)C)C(=O)NCC(=O)N[C@@H](CCCCN)C(=O)N[C@@H](CC2CCOCC2)C(=O)N[C@@H](CC(=O)O)C(=O)N[C@@H](C(C)C)C(=O)N[C@@H](Cc2ccc(O)cc2)C(=O)N1)C(=O)N[C@H](C(=O)N[C@H](CCCCNC(=O)CN1CCN(CC(=O)O)CCN(CC(=O)O)CCN(CC(=O)O)CC1)C(=O)O)C(C)(C)O` [compound 327, Ac-hLeu-Y-C-Tbg-G-K-ThpA-D-V-Y-C-5FW-Nle-hydroxyVal-dLys(DOTA)-COOH] (Ac-[hLeu]YC[Tle]GK[Ala(4-THP)]DVYC[Trp(5-F)][Nle][Val(3-OH)][dK](DOTA)-OH; disulfide 3-11) gave a Kd of 10 to 100 nM.

Take `CC(=O)N[C@@H](CCC(C)C)C(=O)N[C@@H](Cc1ccc(O)cc1)C(=O)N[C@H]1CSSC[C@@H](C(=O)N[C@@H](Cc2cccc3ccccc23)C(=O)N[C@@H](Cc2ccccc2)C(=O)N2CCC[C@@]2(C)C(=O)N[C@H](CCCCNC(=O)CN2CCN(CC(=O)O)CCN(CC(=O)O)CCN(CC(=O)O)CC2)C(N)=O)NC(=O)[C@H](Cc2ccc(O)cc2)NC(=O)[C@H](C(C)C)NC(=O)[C@H](CC(=O)O)NC(=O)[C@H](Cc2ccc(O)cc2)NC(=O)[C@H](CCCCN)NC(=O)CNC(=O)[C@H](C(C)C)NC1=O` [compound 247, Ac-hLeu-Y-C-V-G-K-Y-D-V-Y-C-1Nal-F-aMePro-dLys(DOTA)-CONH2] (Ac-[hLeu]YCVGKYDVYC[1Nal]F[αMeP][dK](DOTA)-NH2; disulfide 3-11): the Kd under setting [1] was in the range of 1 to 10 nM.

In turn, `CC(=O)N[C@@H](CCC(C)C)C(=O)N[C@@H](Cc1ccc(O)cc1)C(=O)N[C@H]1CSSC[C@@H](C(=O)N[C@@H](Cc2c[nH]c3ccc(F)cc23)C(=O)N[C@@H](Cc2ccccc2)C(=O)N[C@H](C(=O)N[C@H](CCCCNC(=O)CN2CCN(CC(=O)O)CCN(CC(=O)O)CCN(CC(=O)O)CC2)C(=O)O)[C@@H](C)O)NC(=O)[C@H](Cc2ccc(O)cc2)NC(=O)[C@H](C(C)C)NC(=O)[C@H](CC(=O)O)NC(=O)[C@H](CC2CCOCC2)NC(=O)[C@H](CCCCN)NC(=O)CN(C)C(=O)[C@H](C(C)C)NC1=O` [compound 362, Ac-hLeu-Y-C-V-Sar-K-ThpA-D-V-Y-C-5FW-F-Thr-dLys(DOTA)-COOH] (Ac-[hLeu]YCV[Sar]K[Ala(4-THP)]DVYC[Trp(5-F)]FT[dK](DOTA)-OH; disulfide 3-11) registered a Kd under setting [1] below 1 nM.

In turn, `CC(=O)N[C@@H](CCC(C)C)C(=O)N[C@@H](Cc1ccc(O)cc1)C(=O)N[C@H]1CSSC[C@@H](C(=O)N[C@@H](Cc2c[nH]c3ccc(F)cc23)C(=O)N[C@@H](Cc2ccccc2)C(=O)N2CCC[C@H]2C(=O)N[C@H](CCCCNC(=O)CN2CCN(CC(=O)O)CCN(CC(=O)O)CCN(CC(=O)O)CC2)C(N)=O)NC(=O)[C@H](Cc2ccc(O)cc2)NC(=O)[C@H](C(C)C)NC(=O)[C@H](CC(=O)O)NC(=O)[C@H](Cc2ccc(C(=O)O)cc2)NC(=O)[C@H](CCCCN)NC(=O)CNC(=O)[C@H](C(C)C)NC1=O` [compound 291, Ac-hLeu-Y-C-V-G-K-4COOHPhe-D-V-Y-C-5FW-F-Pro-dLys(DOTA)-CONH2] (Ac-[hLeu]YCVGK[Phe(4-COOH)]DVYC[Trp(5-F)]FP[dK](DOTA)-NH2; disulfide 3-11) came in with a Kd under setting [1] below 1 nM.

These data come from patent US20250296959A1, “B7-H3 TARGETING PEPTIDES AND CONSTRUCTS THEREOF” (Mariana Oncology Inc., priority 2024, published 2025).
